In brackets after ≈: the same amount, converted by molar mass.
Columns and labels:
Hexokinase-4 [1] = biological target: T1, Hexokinase-4 (Homo sapiens, UniProt P35557); experiment: Activation of recombinant human glucokinase by G6PDH/NADP coupled assay
T1 sequence (P35557 whole entry): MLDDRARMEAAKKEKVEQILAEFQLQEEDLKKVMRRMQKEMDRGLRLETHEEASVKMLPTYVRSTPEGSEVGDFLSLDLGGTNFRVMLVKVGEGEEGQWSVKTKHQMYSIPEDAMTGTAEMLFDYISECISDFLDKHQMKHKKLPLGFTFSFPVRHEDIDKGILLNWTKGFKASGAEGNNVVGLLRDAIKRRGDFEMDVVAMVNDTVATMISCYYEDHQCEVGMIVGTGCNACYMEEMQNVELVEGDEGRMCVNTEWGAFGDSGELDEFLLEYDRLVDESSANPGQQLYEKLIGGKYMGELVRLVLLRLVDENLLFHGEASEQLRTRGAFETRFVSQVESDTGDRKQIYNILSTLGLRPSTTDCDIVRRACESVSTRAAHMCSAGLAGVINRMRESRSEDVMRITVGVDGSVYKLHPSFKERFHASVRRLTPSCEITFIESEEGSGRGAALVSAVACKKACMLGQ

[2] = biological target: T2, Hexokinase-4 (Homo sapiens) (UniProt P35557); experiment: Activation of recombinant human glucokinase assessed as decrease in enzyme Km for glucose by G6PDH/NADP coupled assay relative to control
T2 sequence (whole entry): T1 sequence (P35557 whole entry)

[3] = Apparent permeability across RRCK cells; assay type: ADME, cell-based, Canis lupus familiaris, MDCKII-LE; settings: dog, MDCK
[4] = biological target: T2, Hexokinase-4 (Homo sapiens); experiment: Activation of recombinant human glucokinase assessed as increase in enzyme Vmax for glucose by G6PDH/NADP coupled assay relative to control
[5] = Lipophilicity, log D of the compound at pH 7.4; assay type: physicochemical; settings: buffer
Rattus norvegicus [6] = experiment: Antidiabetic activity in Goto-Kakizaki rat diabetic model assessed as reduction in glucose excursion AUC at 100 mg/kg, po measured after 1 hr by oral glucose tolerance test relative to control; parameters: scale not given: the % may be the effect or the level left
[7] = Aqueous solubility of the compound at pH 8.5; assay type: physicochemical
[8] = Apparent permeability in RRCK cells at pH 6.5; assay type: ADME, cell-based, Canis lupus familiaris, MDCKII-LE; settings: dog, MDCK
[9] = Cmax in rat at 5 mg/kg, po; assay type: ADME, organism-based; parameters: dose 5 mg/kg, route oral; settings: in vivo
Rattus norvegicus [10] = experiment: Antihyperglycemic activity in rat assessed as liver to plasma AUC ratio at EC50 dose, iv administered as infusion up to 4 days; assay type: functional
[11] = AUC (0 to 24 hrs) in rat at 5 mg/kg, po; assay type: ADME, organism-based; parameters: time < 24 hr, dose 5 mg/kg, route oral; settings: plasma
[12] = Half life in rat at 1 mg/kg, iv; assay type: ADME, organism-based; parameters: dose 1 mg/kg, route intravenous; settings: in vivo
[13] = Aqueous kinetic solubility of the compound at pH 6.5; assay type: physicochemical; settings: read-out: Kinetic_solubility
[14] = Clearance in dog at 1 mg/kg, iv; assay type: ADME, organism-based, Canis lupus familiaris; parameters: dose 1 mg/kg, route intravenous; settings: in vivo
[15] = Intrinsic clearance in human liver microsomes; assay type: ADME; settings: read-out: CLH
[16] = Organic anion transporter-mediated drug uptake in rat hepatocytes assessed as total uptake; assay type: ADME, cell-based, Hepatocyte
[17] = Oral bioavailability in dog at 5 mg/kg; assay type: ADME, organism-based, Canis lupus familiaris; settings: in vivo
[18] = Apparent permeability in RRCK cells at pH 5.5; assay type: ADME, cell-based, Canis lupus familiaris, MDCKII-LE; settings: dog, MDCK
[19] = Clearance in rat at 1 mg/kg, iv; assay type: ADME, organism-based; parameters: dose 1 mg/kg, route intravenous; settings: in vivo
[20] = Cmax in dog at 1 mg/kg, iv; assay type: ADME, organism-based, Canis lupus familiaris; parameters: dose 1 mg/kg, route intravenous; settings: in vivo
OATP1B3 = biological target: T3, OATP1B3 (Homo sapiens, UniProt Q9NPD5); experiment: Activity at OATP1B3 (unknown origin) transfected in HEK cells assessed as transporter-mediated cellular uptake relative to mock-transfected HEK cells; assay type: ADME, cell-based; settings: HEK293 cells transfected with OATP1B3, read-out: FC
T3 sequence (Q9NPD5 whole entry): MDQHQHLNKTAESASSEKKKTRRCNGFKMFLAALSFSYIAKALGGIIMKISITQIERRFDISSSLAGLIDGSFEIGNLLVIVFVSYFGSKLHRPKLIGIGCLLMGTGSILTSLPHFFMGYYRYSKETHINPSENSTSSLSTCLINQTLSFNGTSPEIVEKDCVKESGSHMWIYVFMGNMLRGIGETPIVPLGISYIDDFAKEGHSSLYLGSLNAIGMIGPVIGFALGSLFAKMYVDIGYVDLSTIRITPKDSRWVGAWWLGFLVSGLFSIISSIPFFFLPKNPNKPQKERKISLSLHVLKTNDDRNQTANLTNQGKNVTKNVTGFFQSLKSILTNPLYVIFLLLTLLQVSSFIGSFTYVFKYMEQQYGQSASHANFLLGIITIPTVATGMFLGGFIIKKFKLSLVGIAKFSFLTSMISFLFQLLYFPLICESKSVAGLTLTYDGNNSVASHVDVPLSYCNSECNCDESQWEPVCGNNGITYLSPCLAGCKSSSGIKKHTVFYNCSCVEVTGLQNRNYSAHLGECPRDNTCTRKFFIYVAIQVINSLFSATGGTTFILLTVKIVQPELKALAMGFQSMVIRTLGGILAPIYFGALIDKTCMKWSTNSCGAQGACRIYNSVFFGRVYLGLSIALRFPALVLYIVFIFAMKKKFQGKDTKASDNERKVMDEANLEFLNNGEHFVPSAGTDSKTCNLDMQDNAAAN

[21] = Volume of distribution at steady state in rat at 1 mg/kg, iv; assay type: ADME, organism-based; parameters: dose 1 mg/kg, route intravenous; settings: in vivo, read-out: Vdss
Hexokinase-4 [22] = biological target: T4, Hexokinase-4 (Rattus norvegicus, UniProt P17712); experiment: Activation of glucokinase in rat INS-1 cells assessed as glucose-stimulated insulin secretion; assay type: cell-based, INS1
T4 sequence (P17712 whole entry): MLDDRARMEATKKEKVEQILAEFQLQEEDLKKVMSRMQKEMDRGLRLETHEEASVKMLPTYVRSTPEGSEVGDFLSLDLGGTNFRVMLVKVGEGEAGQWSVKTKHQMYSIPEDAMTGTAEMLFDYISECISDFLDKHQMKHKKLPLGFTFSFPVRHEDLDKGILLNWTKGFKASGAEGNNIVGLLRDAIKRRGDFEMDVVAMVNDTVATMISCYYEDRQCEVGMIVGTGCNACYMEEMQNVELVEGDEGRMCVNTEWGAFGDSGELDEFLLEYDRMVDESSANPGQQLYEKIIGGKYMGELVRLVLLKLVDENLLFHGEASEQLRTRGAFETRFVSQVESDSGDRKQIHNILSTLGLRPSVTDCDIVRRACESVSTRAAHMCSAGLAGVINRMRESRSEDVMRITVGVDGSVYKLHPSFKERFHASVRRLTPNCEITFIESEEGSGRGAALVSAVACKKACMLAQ

[23] = Half life in dog at 1 mg/kg, iv; assay type: ADME, organism-based, Canis lupus familiaris; parameters: dose 1 mg/kg, route intravenous; settings: in vivo
[24] = Organic anion transporter-mediated drug uptake in rat hepatocytes assessed as passive uptake; assay type: ADME, cell-based, Hepatocyte
[25] = Apparent permeability in RRCK cells at pH 7.4; assay type: ADME, cell-based, Canis lupus familiaris, MDCKII-LE; settings: dog, MDCK
[26] = Cmax in dog at 5 mg/kg, po; assay type: ADME, organism-based, Canis lupus familiaris; parameters: dose 5 mg/kg, route oral; settings: in vivo
[27] = AUC (0 to 24 hrs) in rat at 1 mg/kg, iv; assay type: ADME, organism-based; parameters: time < 24 hr, dose 1 mg/kg, route intravenous; settings: plasma
OATP1B1 = biological target: T5, OATP1B1 (Homo sapiens, UniProt Q9Y6L6); experiment: Activity at OATP1B1 (unknown origin) transfected in HEK cells assessed as transporter-mediated cellular uptake relative to mock-transfected HEK cells; assay type: ADME, cell-based; settings: HEK293 cells transfected with OATP1B1, read-out: FC
T5 sequence (Q9Y6L6 whole entry): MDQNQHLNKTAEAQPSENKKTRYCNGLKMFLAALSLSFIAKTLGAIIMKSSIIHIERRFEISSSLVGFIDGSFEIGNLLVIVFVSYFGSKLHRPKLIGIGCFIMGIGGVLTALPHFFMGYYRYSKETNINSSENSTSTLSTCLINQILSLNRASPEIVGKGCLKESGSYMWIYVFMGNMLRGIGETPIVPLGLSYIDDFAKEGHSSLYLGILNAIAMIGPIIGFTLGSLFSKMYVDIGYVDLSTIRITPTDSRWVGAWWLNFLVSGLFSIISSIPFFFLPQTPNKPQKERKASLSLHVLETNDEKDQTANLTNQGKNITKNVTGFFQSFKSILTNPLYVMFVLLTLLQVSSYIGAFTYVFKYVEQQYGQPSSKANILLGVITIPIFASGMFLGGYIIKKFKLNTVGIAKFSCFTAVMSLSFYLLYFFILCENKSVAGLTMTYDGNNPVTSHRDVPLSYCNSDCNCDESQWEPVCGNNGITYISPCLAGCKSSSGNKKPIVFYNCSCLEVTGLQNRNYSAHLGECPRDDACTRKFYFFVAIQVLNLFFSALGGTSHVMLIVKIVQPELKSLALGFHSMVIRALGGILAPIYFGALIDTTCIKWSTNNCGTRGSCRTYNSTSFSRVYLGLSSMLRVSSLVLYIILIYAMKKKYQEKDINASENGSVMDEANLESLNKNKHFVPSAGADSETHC

[28] = Volume of distribution at steady state in dog at 1 mg/kg, iv; assay type: ADME, organism-based, Canis lupus familiaris; parameters: dose 1 mg/kg, route intravenous; settings: in vivo, read-out: Vdss
Rattus norvegicus [29] = experiment: Antihyperglycemic activity in rat assessed as liver to plasma AUC ratio at 5 mg/kg, iv administered as bolus after 1 to 6 hrs; assay type: functional
Hexokinase-4 [30] = biological target: T4, Hexokinase-4; experiment: Activation of glucokinase in Wistar rat hepatocytes assessed as nuclear to cytosolic translocation of protein by immunofluorescence assay; assay type: cell-based, Hepatocyte
[31] = Oral bioavailability in rat at 5 mg/kg; assay type: ADME, organism-based; settings: in vivo
[32] = Organic anion transporter-mediated drug uptake in rat hepatocytes assessed as active uptake; assay type: ADME, cell-based, Hepatocyte
[33] = Cmax in rat at 1 mg/kg, iv; assay type: ADME, organism-based; parameters: dose 1 mg/kg, route intravenous; settings: in vivo
[34] = AUC (0 to 24 hrs) in dog at 5 mg/kg, po; assay type: ADME, organism-based, Canis lupus familiaris; parameters: time < 24 hr, dose 5 mg/kg, route oral; settings: plasma
[35] = AUC (0 to 24 hrs) in dog at 1 mg/kg, iv; assay type: ADME, organism-based, Canis lupus familiaris; parameters: time < 24 hr, dose 1 mg/kg, route intravenous; settings: plasma
Rattus norvegicus [36] = experiment: Antidiabetic activity in Goto-Kakizaki rat diabetic model assessed as reduction in glucose excursion AUC at 24 mg/kg, iv administered as infusion for 4 hrs measured after 2 hrs by oral glucose tolerance test relative to control; assay type: functional; parameters: scale not given: the % may be the effect or the level left

O=C(O)c1ccc(NC(=O)[C@H](CC2CCCCC2)n2cnc(S(=O)(=O)C3CC3)c2)nc1
EC50 (Hexokinase-4 [1]): 113 nM | fold change (FC) [2]: 0.08 | Papp [3]: 0.5 ×10⁻⁶ cm/s | fold change (FC) [4]: 1.5 | logD [5]: -0.25

O=C(O)c1ccc(NC(=O)[C@H](CC2CCCC2)n2cnc(C(F)(F)F)c2)nc1 [PF-04991532]
Activity (Rattus norvegicus [6]): 17.7% | logD [5]: 0.68

O=C([O-])c1ccc(NC(=O)[C@H](CC2CCCC2)n2cnc(S(=O)(=O)C3CCC3)c2)nc1.[Na+]
solubility [7]: 41 mM

O=C(O)c1ccc(NC(=O)[C@H](CC2CCCC2)n2cnc(S(=O)(=O)C3CCC3)c2)nc1 [listing 1 of 2 here]
EC50 (Hexokinase-4 [1]): 201 nM | Papp [8]: 1.3 ×10⁻⁶ cm/s | Cmax [9]: 2.5 ng/mL | Ratio AUC (Rattus norvegicus [10]): 3.5 | AUC(0-t) at 24 h [11]: 3.4 ng·h/mL | half-life [12]: 12 min | solubility kinetic [13]: 0.428 mM (≈ 191 µg/mL) | clearance [14]: 18 mL/min/kg | CLint scaled [15]: < 8 mL/min/kg | Drug uptake [16]: 22 µL/min/mg | bioavailability [17]: < 5% | Papp [18]: 1.4 ×10⁻⁶ cm/s | clearance [19]: 96 mL/min/kg | Cmax [20]: 6350 ng/mL | uptake ratio (OATP1B3): 2.3 | Vd [21]: 0.8 L/kg | EC50 (Hexokinase-4 [22]): 174000 nM | Papp [3]: 0.5 ×10⁻⁶ cm/s | half-life [23]: 42 min | Drug uptake [24]: 12 µL/min/mg | Papp [25]: 2 ×10⁻⁶ cm/s | Cmax [26]: 12.8 ng/mL | AUC(0-t) at 24 h [27]: 176 ng·h/mL | uptake ratio (OATP1B1): 4.1 | Vd [28]: 0.4 L/kg | Ratio AUC (Rattus norvegicus [29]): 2 | IC50 (Hexokinase-4 [30]): 1700 nM | bioavailability [31]: < 1% | Drug uptake [32]: 55% | logD [5]: -0.1 | Cmax [33]: 1400 ng/mL | AUC(0-t) at 24 h [34]: 36.6 ng·h/mL | AUC(0-t) at 24 h [35]: 932 ng·h/mL | Activity (Rattus norvegicus [36]): 15.4%

O=C(O)c1ccc(NC(=O)[C@H](CC2CCCC2)n2cnc(S(=O)(=O)C3CCC3)c2)nc1 [listing 2 of 2 here]
fold change (FC) [2]: 0.06 | fold change (FC) [4]: 1.35
